Laboratory results published in patent US20100016232A1, “Treatment Of Inflammatory Diseases With Mammal Beta Defensins” (Novozymes A/S, priority 2008, published 2010).
Marks after values point to notes of the source that are not given here. Where no end group is shown, it is not given here.

Legend:
[1] = system: DSS-induced colitis in the mouse; assay: 10-day DSS-induced colitis, Disease Activity Index (Example 6); type: in vivo; set-up: key: clinical Disease Activity Index (stool, bleeding, weight loss)
Description: Daily clinical assessment of DSS-treated animals was carried out, with the calculation of a validated clinical Disease Activity Index (DAI) ranging from 0 to 4 according to the following parameters: stool consistency, presence or absence of rectal bleeding and weight loss:
Example 6 was carried out essentially as described in Example 5. The differences are indicated below.
Animals were divided into 9 experimental groups.
The animals in group F received one dose i.v. and another dose s.c. (12 hours after the i.v. dose) of the corresponding test item for 10 consecutive days.
The animals in group G received one dose every two days of the corresponding test item for 10 consecutive days.
Methylprednisolone was given orally at a dose of 1 mg/kg (group H) and 10 mg/kg (group J) in a dosing volume of 5 ml/kg body weight, once daily for 10 consecutive days.

[2] = system: collagen-induced arthritis (CIA) in the mouse; assay: Collagen-induced rheumatoid arthritis model, clinical arthritis score; type: in vivo; set-up: key: each paw scored 0-4 by ascending severity; total summed over paws
Description: All animals were subjected on Day 0 of the study (study commencement) to an intradermal injection into the tail of 0.1 ml Type II Collagen/CFA emulsion (200 μg collagen per mouse) under light Isoflurane anesthesia, using a plastic syringe. The location of injection was at an approximate caudal distance of about 1 cm from the base of the tail. A collagen challenge (200 μg/mouse) was presented to the animals by IP injection of collagen and PBS on Day 21.
Treatments were commenced on day 14 of the study and continued once daily throughout. All surviving mice were terminated on study day 42.
Mice were examined for signs of arthritogenic responses in peripheral joints on study day 0, 14, 21 and thereafter five times weekly until termination of the study. Arthritis reactions were reported for each paw according to a 0-4 scale in ascending order of severity as shown below:
In accordance with Home Office regulations mice with a total clinical score of equal to or greater than 12 were culled due to arthritis severity. The clinical score of these mice at termination was carried forward in the analysis for the remainder of the study in order that the data was not artificially skewed by the removal of high scoring mice.

hBD2: human beta defensin 2, SEQ ID NO:2; produced recombinantly in E. coli (Example 1); hBD2 of Tables 16-18 was prepared by chemical synthesis (GIGDPVTCLKSGAICHPVFCPRRYKQIGTCGLPGTKCCKKP; ends and bridges not checked; cysteine pairing not given here; listed as Homo sapiens)
DAI score, mean ([1]; Group B, 1 mg/kg i.v., Day 1): 0.00 | DAI score, mean ([1]; Group B, 1 mg/kg i.v., Day 2): 0.10 | DAI score, mean ([1]; Group B, 1 mg/kg i.v., Day 3): 0.20 | DAI score, mean ([1]; Group B, 1 mg/kg i.v., Day 4): 0.40 | DAI score, mean ([1]; Group B, 1 mg/kg i.v., Day 5): 0.30 | DAI score, mean ([1]; Group B, 1 mg/kg i.v., Day 6): 2.30* | DAI score, mean ([1]; Group B, 1 mg/kg i.v., Day 7): 4.40* | DAI score, mean ([1]; Group B, 1 mg/kg i.v., Day 8): 6.89 | DAI score, mean ([1]; Group B, 1 mg/kg i.v., Day 9): 5.00* | DAI score, mean ([1]; Group B, 1 mg/kg i.v., Day 10): 5.78* | DAI score, mean ([1]; Group C, 0.1 mg/kg i.v., Day 1): 0.00 | DAI score, mean ([1]; Group C, 0.1 mg/kg i.v., Day 2): 0.44 | DAI score, mean ([1]; Group C, 0.1 mg/kg i.v., Day 3): 0.89 | DAI score, mean ([1]; Group C, 0.1 mg/kg i.v., Day 4): 0.56 | DAI score, mean ([1]; Group C, 0.1 mg/kg i.v., Day 5): 0.78 | DAI score, mean ([1]; Group C, 0.1 mg/kg i.v., Day 6): 1.56** | DAI score, mean ([1]; Group C, 0.1 mg/kg i.v., Day 7): 4.13* | DAI score, mean ([1]; Group C, 0.1 mg/kg i.v., Day 8): 5.43* | DAI score, mean ([1]; Group C, 0.1 mg/kg i.v., Day 9): 6.29* | DAI score, mean ([1]; Group C, 0.1 mg/kg i.v., Day 10): 6.86 | DAI score, mean ([1]; Group D, 0.01 mg/kg i.v., Day 1): 0.00 | DAI score, mean ([1]; Group D, 0.01 mg/kg i.v., Day 2): 0.00 | DAI score, mean ([1]; Group D, 0.01 mg/kg i.v., Day 3): 0.30 | DAI score, mean ([1]; Group D, 0.01 mg/kg i.v., Day 4): 0.40 | DAI score, mean ([1]; Group D, 0.01 mg/kg i.v., Day 5): 1.60 | DAI score, mean ([1]; Group D, 0.01 mg/kg i.v., Day 6): 2.70 | DAI score, mean ([1]; Group D, 0.01 mg/kg i.v., Day 7): 6.50 | DAI score, mean ([1]; Group D, 0.01 mg/kg i.v., Day 8): 6.20* | DAI score, mean ([1]; Group D, 0.01 mg/kg i.v., Day 9): 4.60*** | DAI score, mean ([1]; Group D, 0.01 mg/kg i.v., Day 10): 5.20** | DAI score, mean ([1]; Group E, 0.001 mg/kg i.v., Day 1): 0.00 | DAI score, mean ([1]; Group E, 0.001 mg/kg i.v., Day 2): 0.00 | DAI score, mean ([1]; Group E, 0.001 mg/kg i.v., Day 3): 0.10 | DAI score, mean ([1]; Group E, 0.001 mg/kg i.v., Day 4): 0.20 | DAI score, mean ([1]; Group E, 0.001 mg/kg i.v., Day 5): 0.40 | DAI score, mean ([1]; Group E, 0.001 mg/kg i.v., Day 6): 3.40 | DAI score, mean ([1]; Group E, 0.001 mg/kg i.v., Day 7): 7.11 | DAI score, mean ([1]; Group E, 0.001 mg/kg i.v., Day 8): 8.56 | DAI score, mean ([1]; Group E, 0.001 mg/kg i.v., Day 9): 5.89** | DAI score, mean ([1]; Group E, 0.001 mg/kg i.v., Day 10): 6.67 | DAI score, mean ([1]; Group F, 0.1 mg/kg twice daily i.v. + s.c., Day 1): 0.00 | DAI score, mean ([1]; Group F, 0.1 mg/kg twice daily i.v. + s.c., Day 2): 0.30 | DAI score, mean ([1]; Group F, 0.1 mg/kg twice daily i.v. + s.c., Day 3): 0.70 | DAI score, mean ([1]; Group F, 0.1 mg/kg twice daily i.v. + s.c., Day 4): 0.70 | DAI score, mean ([1]; Group F, 0.1 mg/kg twice daily i.v. + s.c., Day 5): 0.60 | DAI score, mean ([1]; Group F, 0.1 mg/kg twice daily i.v. + s.c., Day 6): 0.70*** | DAI score, mean ([1]; Group F, 0.1 mg/kg twice daily i.v. + s.c., Day 7): 3.50** | DAI score, mean ([1]; Group F, 0.1 mg/kg twice daily i.v. + s.c., Day 8): 4.00*** | DAI score, mean ([1]; Group F, 0.1 mg/kg twice daily i.v. + s.c., Day 9): 2.90*** | DAI score, mean ([1]; Group F, 0.1 mg/kg twice daily i.v. + s.c., Day 10): 4.50*** | DAI score, mean ([1]; Group G, 0.1 mg/kg i.v. every 2. day, Day 1): 0.00 | DAI score, mean ([1]; Group G, 0.1 mg/kg i.v. every 2. day, Day 2): 0.20 | DAI score, mean ([1]; Group G, 0.1 mg/kg i.v. every 2. day, Day 3): 0.40 | DAI score, mean ([1]; Group G, 0.1 mg/kg i.v. every 2. day, Day 4): 0.50 | DAI score, mean ([1]; Group G, 0.1 mg/kg i.v. every 2. day, Day 5): 0.50 | DAI score, mean ([1]; Group G, 0.1 mg/kg i.v. every 2. day, Day 6): 2.90 | DAI score, mean ([1]; Group G, 0.1 mg/kg i.v. every 2. day, Day 7): 6.50 | DAI score, mean ([1]; Group G, 0.1 mg/kg i.v. every 2. day, Day 8): 8.70 | DAI score, mean ([1]; Group G, 0.1 mg/kg i.v. every 2. day, Day 9): 7.50 | DAI score, mean ([1]; Group G, 0.1 mg/kg i.v. every 2. day, Day 10): 6.56 | Mean total arthritis score, peak ([2]; 0.1 mg/kg i.v. once daily from day 14 (Group E), study day 40): 9.0±0.77 | Mean total arthritis score, peak ([2]; 1 mg/kg i.v. once daily from day 14 (Group D), study day 41): 5.2±1.11 | Mean total arthritis score, peak ([2]; 10 mg/kg i.v. once daily from day 14 (Group C), study day 40): 5.0±1.04 | Mean Arthritic Score ([2]; Group C, 10 mg/kg IV once daily, Study Day 0): 0.0 | Mean Arthritic Score ([2]; Group C, 10 mg/kg IV once daily, Study Day 14): 1.7 | Mean Arthritic Score ([2]; Group C, 10 mg/kg IV once daily, Study Day 21): 3.1 | Mean Arthritic Score ([2]; Group C, 10 mg/kg IV once daily, Study Day 22): 4.3 | Mean Arthritic Score ([2]; Group C, 10 mg/kg IV once daily, Study Day 23): 3.3 | Mean Arthritic Score ([2]; Group C, 10 mg/kg IV once daily, Study Day 26): 4.1 | Mean Arthritic Score ([2]; Group C, 10 mg/kg IV once daily, Study Day 27): 4.1 | Mean Arthritic Score ([2]; Group C, 10 mg/kg IV once daily, Study Day 28): 4.1 | Mean Arthritic Score ([2]; Group C, 10 mg/kg IV once daily, Study Day 29): 4.4 | Mean Arthritic Score ([2]; Group C, 10 mg/kg IV once daily, Study Day 30): 4.9 | Mean Arthritic Score ([2]; Group C, 10 mg/kg IV once daily, Study Day 33): 4.8 | Mean Arthritic Score ([2]; Group C, 10 mg/kg IV once daily, Study Day 34): 4.9 | Mean Arthritic Score ([2]; Group C, 10 mg/kg IV once daily, Study Day 35): 4.9 | Mean Arthritic Score ([2]; Group C, 10 mg/kg IV once daily, Study Day 36): 4.8 | Mean Arthritic Score ([2]; Group C, 10 mg/kg IV once daily, Study Day 37): 4.7 | Mean Arthritic Score ([2]; Group C, 10 mg/kg IV once daily, Study Day 40): 5.0 | Mean Arthritic Score ([2]; Group C, 10 mg/kg IV once daily, Study Day 41): 4.8* | Mean Arthritic Score ([2]; Group D, 1 mg/kg IV once daily, Study Day 0): 0.0 | Mean Arthritic Score ([2]; Group D, 1 mg/kg IV once daily, Study Day 14): 0.6 | Mean Arthritic Score ([2]; Group D, 1 mg/kg IV once daily, Study Day 21): 2.1 | Mean Arthritic Score ([2]; Group D, 1 mg/kg IV once daily, Study Day 22): 2.3 | Mean Arthritic Score ([2]; Group D, 1 mg/kg IV once daily, Study Day 23): 2.0 | Mean Arthritic Score ([2]; Group D, 1 mg/kg IV once daily, Study Day 26): 2.0 | Mean Arthritic Score ([2]; Group D, 1 mg/kg IV once daily, Study Day 27): 2.0 | Mean Arthritic Score ([2]; Group D, 1 mg/kg IV once daily, Study Day 28): 2.3 | Mean Arthritic Score ([2]; Group D, 1 mg/kg IV once daily, Study Day 29): 2.4 | Mean Arthritic Score ([2]; Group D, 1 mg/kg IV once daily, Study Day 30): 2.7 | Mean Arthritic Score ([2]; Group D, 1 mg/kg IV once daily, Study Day 33): 4.0 | Mean Arthritic Score ([2]; Group D, 1 mg/kg IV once daily, Study Day 34): 4.1 | Mean Arthritic Score ([2]; Group D, 1 mg/kg IV once daily, Study Day 35): 4.0 | Mean Arthritic Score ([2]; Group D, 1 mg/kg IV once daily, Study Day 36): 4.1 | Mean Arthritic Score ([2]; Group D, 1 mg/kg IV once daily, Study Day 37): 4.2 | Mean Arthritic Score ([2]; Group D, 1 mg/kg IV once daily, Study Day 40): 4.7* | Mean Arthritic Score ([2]; Group D, 1 mg/kg IV once daily, Study Day 41): 5.2 | Mean Arthritic Score ([2]; Group E, 0.1 mg/kg IV once daily, Study Day 0): 0.0 | Mean Arthritic Score ([2]; Group E, 0.1 mg/kg IV once daily, Study Day 14): 1.2 | Mean Arthritic Score ([2]; Group E, 0.1 mg/kg IV once daily, Study Day 21): 3.2 | Mean Arthritic Score ([2]; Group E, 0.1 mg/kg IV once daily, Study Day 22): 3.6 | Mean Arthritic Score ([2]; Group E, 0.1 mg/kg IV once daily, Study Day 23): 3.2 | Mean Arthritic Score ([2]; Group E, 0.1 mg/kg IV once daily, Study Day 26): 3.7 | Mean Arthritic Score ([2]; Group E, 0.1 mg/kg IV once daily, Study Day 27): 4.1 | Mean Arthritic Score ([2]; Group E, 0.1 mg/kg IV once daily, Study Day 28): 4.4 | Mean Arthritic Score ([2]; Group E, 0.1 mg/kg IV once daily, Study Day 29): 5.0 | Mean Arthritic Score ([2]; Group E, 0.1 mg/kg IV once daily, Study Day 30): 5.9 | Mean Arthritic Score ([2]; Group E, 0.1 mg/kg IV once daily, Study Day 33): 7.3 | Mean Arthritic Score ([2]; Group E, 0.1 mg/kg IV once daily, Study Day 34): 7.8 | Mean Arthritic Score ([2]; Group E, 0.1 mg/kg IV once daily, Study Day 35): 8.0 | Mean Arthritic Score ([2]; Group E, 0.1 mg/kg IV once daily, Study Day 36): 8.2 | Mean Arthritic Score ([2]; Group E, 0.1 mg/kg IV once daily, Study Day 37): 8.7 | Mean Arthritic Score ([2]; Group E, 0.1 mg/kg IV once daily, Study Day 40): 9.0 | Mean Arthritic Score ([2]; Group E, 0.1 mg/kg IV once daily, Study Day 41): 8.8
